Measured values as given in article PMC8615111, “Phenolic Thiazoles with Antioxidant and Antiradical Activity. Synthesis, In Vitro Evaluation, Toxicity, Electrochemical Behavior, Quantum Studies and Antimicrobial Screening” (Antioxidants, 2021).
pIC50: −log10 of the molar value. Read-outs that look alike come from different tables or passages of the source.

How the values were obtained:
[1] = DPPH˙ radical scavenging by cyclic voltammetry
Protocol: The antioxidant properties were evaluated in terms of their activity against some free radicals, and other compounds reported in the literature, relevant for this purpose, such as: • ferric ions (Fe^3+)—used to test the reduction of the antioxidant character of the compounds; • DPPH˙ free radical– used to test the scavenging effect of the compounds on this radical; • hydrogen peroxide (H2O2)—used to test the scavenging effect of the synthesized molecules on this compound; • 2,2,6,6-tetramethylpiperidinyl-1-oxy (TEMPO)—used to test the scavenging effect of the synthesized molecules on this compound.
The radical scavenging properties of the novel compounds and the other antioxidants were determined using a stock DPPH˙ radical solution prepared in absolute ethanol. The antioxidant samples were mixed with DPPH˙ solution and HClO4 electrolyte and incubated in the dark for 30 min. The remaining redox activity of DPPH was measured by cycling the potential between −0.7 V and 1.2 V, with a scan rate of 0.1 V/s.
The nitrogen-centered 2-2-diphenyl-1-picrylhydrazyl radical (DPPH˙) based assay is one of the most commonly employed method to evaluate the ability of a compound to scavenge or neutralize free radicals based on the reduction of the radical.
Taking into account the redox activity of DPPH˙, its diminution by an antioxidant can also be followed by CV, which is expected to show changes in the voltammetric peaks. Figure A5 reports the electrochemical study of initial electrooxidation of DPPH˙ and the novel compounds compared to remaining peaks after their incubation for 30 min. The decrease of all the peaks after mixture incubation indicates the partial consumption of DPPH˙.

[2] = system: E. coli ATCC 25922; assay: Antimicrobial activity, modified microdilution; assay type: cell-based; conditions: Escherichia coli, ATCC25922
Protocol: (§1) For evaluating the antimicrobial activity of the compounds, […] aerobic microbial strains were used: S. aureus ATCC 25923, S. pyogenes ATCC 19615, P. aeruginosa ATCC 27853, S. enterica ISM 83/37, S. typhimurium ATCC 14028, E. coli ATCC 8739, E. coli ATCC 25922, and C. albicans ATCC 102310 obtained from Food Biotechnology Laboratory, Life Sciences Institute, University of Agricultural Sciences, and Veterinary Medicine Cluj Napoca, where the experiment was performed. The antimicrobial activity of the compounds was determined using a modified microdilution technique, and the followed protocol was previously reported.
(§2) The antimicrobial activity of the final compounds, against seven aerobic microbial strains (S. aureus ATCC 25923, S. pyogenes ATCC 19615, P. aeruginosa ATCC 27853, S. enterica ISM 83/37, S. typhimurium ATCC 14028, E. coli ATCC 8739, E. coli ATCC 25922), and a fungal strain (C. albicans ATCC 102310), was determined using a modified microdilution technique.
(§3) The results of the antimicrobial activity evaluation of the compounds, in comparison to norfloxacin and chloramphenicol used as standard antibiotics and fluconazole used as reference antifungal, are depicted in Table 10.

[3] = system: E. coli ATCC 8739; assay: Antimicrobial activity, modified microdilution; assay type: cell-based; conditions: Escherichia coli, ATCC8739
Protocol: as §1, §2, §3

[4] = system: P. aeruginosa ATCC 27853; assay: Antimicrobial activity, modified microdilution; assay type: cell-based; conditions: Pseudomonas aeruginosa, ATCC27853
Protocol: as §1, §2, §3

[5] = system: S. aureus ATCC 25923; assay: Antimicrobial activity, modified microdilution; assay type: cell-based; conditions: Staphylococcus aureus, ATCC25923
Protocol: as §1, §2, §3

[6] = system: S. enterica ISM 83/37; assay: Antimicrobial activity, modified microdilution; assay type: cell-based; conditions: Salmonella enterica, ISM83/37
Protocol: as §1, §2, §3

[7] = system: S. pyogenes ATCC 19615; assay: Antimicrobial activity, modified microdilution; assay type: cell-based; conditions: Streptococcus pyogenes, ATCC19615
Protocol: as §1, §2, §3

[8] = system: S. typhimurium ATCC 14028; assay: Antimicrobial activity, modified microdilution; assay type: cell-based; conditions: Salmonella enterica
Protocol: as §1, §2, §3

[9] = system: HaCaT cells; assay: Cytotoxicity determination, MTT method; assay type: cell-based; conditions: Homo sapiens, HaCaT cells, MTT, 24 h; for pIC50: read-out: IC50; for IC50: read-out: IC50 (µg/mL)
Protocol: To determine the cytotoxic action of the obtained compounds 5[…], and 8a-b, a normal human keratinocytes cell line was used (HaCaT keratinocytes, CLS-300493, Eppelheim, Germany). HaCaT cells were cultured in Dulbecco's Modified Eagle Media (DMEM) supplemented with 1% L-glutamine, 1% penicillin-streptomycin, and 5% fetal bovine serum. At 80% confluence, the cells were transferred to 96 well plates at a confluence of 12×10^3 cells/well and left to attach for 24 h at 37°C and 5% CO2 in a humidified atmosphere. […] After 24 h, the culture media was replaced with 100 μL of MTT solution at a final concentration of 5 μg/mL/well and left to interact with the cells for 2 h in the incubator. After this, the MTT solution was replaced with 100 μL of isopropanol, left to dissolve the formazan crystals for 5 min, and read at 550 and 630 nm using a BioTek Epoch plate reader (BioTek Instruments, Winooski, VT, USA) and Gen5 software (version 1.09).

[10] = ABTS˙^+ radical scavenging assay; assay type: biochemical; conditions: for IC50: ABTS˙^+ scavenging
Protocol: The assay was based on the decolorization of green (2,2′-azinobis-(3-ethylbenzothiazoline-6-sulfonic acid) ABTS˙^+ to ABTS, on the principle reported by Re et al. and was carried out according to our previously published research.
Later, 1950 µL of ABTS˙^+ reagent was added to all cuvettes and they were shaken for well over 10 min in the dark at room temperature. The absorbance of the resulted solutions found in cuvettes was determined spectrophotometrically at λ = 734 nm. The ABTS scavenging activity of the compounds was calculated using the following Equation (1):(1) ABTS scavenging (%)=control absorbance−sample absorbance/control absorbance×100

[11] = compound + DPPH, 30 min, 2nd Eox
[12] = compound + DPPH, 30 min, 2nd Ered column
[13] = compound + DPPH, 30 min, 2nd Ired
[14] = compound alone, 2nd Ered column
[15] = compound alone 0.5 mM in 0.1 M HClO4, 1st Eox column
[16] = compound alone 0.5 mM in 0.1 M HClO4, 1st Iox column

Row | Compound | Iox (μA) ([1]; compound + DPPH, 30 min) | Eox (V) [1, 11] | Ered (V) [1, 12] | Ered (V) [1, 14] | Ired (μA) ([1]; compound alone, 2nd Ired) | MIC [2] | MIC [3] | MIC [4] | MIC [5] | MIC [6] | MIC [7] | MIC [8] | pIC50 [9] | IC50 [9] | % of ABTS˙^+ Scavenged ([10]; 0.5 µg/mL) | % of ABTS˙^+ Scavenged ([10]; 0.75 µg/mL) | % of ABTS˙^+ Scavenged ([10]; 1 µg/mL) | % of ABTS˙^+ Scavenged ([10]; 1.5 µg/mL) | % of ABTS˙^+ Scavenged ([10]; 2.5 µg/mL) | IC50 [10] | also measured
1 | C/C(=N\Nc1nc(C)cs1)c1ccc(O)cc1O [Compound 5a, Dihydroxy-Phenyl-Thiazol-Hydrazinium chloride] | 13.23 μA | 0.362 V | 0.188 V | 0.137 V | −9.59 μA | > 100 µg/mL | > 100 µg/mL | 31.2 µg/mL | > 100 µg/mL | > 100 µg/mL | > 100 µg/mL | > 100 µg/mL | 3.99 | 30.7 µg/mL | – | – | – | – | – | – | Ired (μA) [1, 13]: −5.46 μA; Eox (V) ([1]; compound + DPPH, 30 min, 3rd Eox column): 0.572 V; Iox (μA) ([1]; compound + DPPH, 30 min, 3rd Iox column): 11.81 μA; Eox (V) ([1]; compound + DPPH, after 30 min of reaction, 1st Eox column): 0.218 V; Iox (μA) ([1]; compound + DPPH, after 30 min of reaction, 1st Iox column): 8.68 μA; Iox (μA) ([1]; compound alone): 43.29 μA; Eox (V) ([1]; compound alone, 2nd Eox): 0.339 V; Eox (V) ([1]; compound alone, 3rd Eox column): 0.598 V; Iox (μA) ([1]; compound alone, 3rd Iox column): 20.51 μA; Eox (V) ([1]; compound alone, 4th Eox column): 0.987 V; Iox (μA) ([1]; compound alone, 4th Iox column): 15.5 μA
2 | Cc1csc(N/N=C/c2ccc(O)cc2O)n1.Cl [Compound 5b, (E)-2-(2,4-dihydroxybenzylidene)-1-(4-methylthiazol-2-yl)hydrazin-1-ium chloride] | 33.3 μA | 0.349 V | 0.145 V | 0.11 V | −10.26 μA | – | – | – | – | > 100 µg/mL | – | – | 3.75 | 50.3 µg/mL | 35.55% | 41.10% | 48.40% | 66.50% | 98.09% | 1.00 µg/mL | Ired (μA) [1, 13]: −7.56 μA; Iox (μA) ([1]; compound alone): 31.76 μA; Eox (V) ([1]; compound alone, 2nd Eox): 0.357 V; MIC ([2]; E. coli ATCC 25922, read-out: MIC): > 100 µg/mL; MIC ([3]; E. coli ATCC 8739, read-out: MIC): > 100 µg/mL; MIC ([4]; P. aeruginosa ATCC 27853, read-out: MIC): 31.2 µg/mL; MIC ([5]; S. aureus ATCC 25923, read-out: MIC): > 100 µg/mL; MIC ([7]; S. pyogenes ATCC 19615, read-out: MIC): > 100 µg/mL; MIC ([8]; S. typhimurium ATCC 14028, read-out: MIC): > 100 µg/mL
3 | Br.C/C(=N\Nc1nc(-c2ccccc2)cs1)c1ccc(O)cc1O [Compound 6a, (E)-2-(1-(2,4-dihydroxyphenyl)ethylidene)-1-(4-phenylthiazol-2-yl)hydrazin-1-ium bromide] | 18.21 μA | 0.379 V | – | 0.193 V | −4.16 μA | > 100 µg/mL | > 100 µg/mL | 31.2 µg/mL | > 100 µg/mL | > 100 µg/mL | > 100 µg/mL | > 100 µg/mL | 3.51 | 127 µg/mL | 4.75% | 7.92% | 12.68% | 22.21% | 36.01% | 3.34 µg/mL | Eox (V) [1, 15]: 0.232 V; Iox (μA) [1, 16]: 4.99 μA; Eox (V) ([1]; compound alone, 3rd Eox column): 0.565 V; Iox (μA) ([1]; compound alone, 3rd Iox column): 4.37 μA
4 | Br.Oc1ccc(/C=N/Nc2nc(-c3ccccc3)cs2)c(O)c1 [Compound 6b, (E)-2-(2,4-dihydroxybenzylidene)-1-(4-phenylthiazol-2-yl)hydrazin-1-ium bromide] | 43.4 μA | 0.391 V | 0.425 V | 0.239 V | −7.045 μA | > 100 µg/mL | > 100 µg/mL | > 100 µg/mL | > 100 µg/mL | > 100 µg/mL | > 100 µg/mL | > 100 µg/mL | > 5.90 | < 0.5 µg/mL | 11.67% | 17.45% | 19.83% | 28.56% | 42.53% | 2.97 µg/mL | Ered (V) ([1]; compound + DPPH, 30 min, 1st Ered): 0.302 V; Ired (μA) ([1]; compound + DPPH, 30 min, 1st Ired): −1.09 μA; Ired (μA) [1, 13]: −1.23 μA; Iox (μA) ([1]; compound alone): 47.3 μA; Eox (V) ([1]; compound alone, 2nd Eox): 0.391 V
5 | Br.C/C(=N\Nc1nc(-c2ccc(O)c(C(N)=O)c2)cs1)c1ccc(O)cc1O [Compound 7a, (E)-1-(4-(3-carbamoyl-4-hydroxyphenyl)thiazol-2-yl)-2-(1-(2,4-dihydroxyphenyl)ethylidene)hydrazin-1-ium bromide] | 9.24 μA | 0.405 V | – | 0.217 V | −5.26 μA | > 100 µg/mL | > 100 µg/mL | 3.9 µg/mL | 62.4 µg/mL | > 100 µg/mL | 31.2 µg/mL | > 100 µg/mL | 4.12 | 35.1 µg/mL | 11.62% | 17.29% | 22.69% | 30.78% | 49.37% | 2.52 µg/mL | Eox (V) [1, 15]: 0.205 V; Iox (μA) [1, 16]: 3.21 μA; Eox (V) ([1]; compound alone, 3rd Eox column): 0.493 V; Iox (μA) ([1]; compound alone, 3rd Iox column): 3.95 μA
